Measurements as given in ChEMBL document CHEMBL1149918, “Novel 1,5-benzodiazepindione gastrin/CCKB antagonists” (Bioorg Med Chem Lett, 1997).

Tests used:
[1] = Compound was tested for plasma clearance in rat; type: ADME, organism-based; conditions: read-out: Clp
[2] = Oral bioavailability in rat; type: ADME, organism-based; conditions: in vivo
[3] = molecular target: T1, Gastrin/cholecystokinin type B receptor (Homo sapiens, UniProt P32239); experiment: Tested for its selectivity against human Cholecystokinin type B receptor isolated from a human temporal cortex cDNA library and stably transfected into a HeLa cell line. (n=1); type: cell-based
T1 sequence (P32239 whole entry): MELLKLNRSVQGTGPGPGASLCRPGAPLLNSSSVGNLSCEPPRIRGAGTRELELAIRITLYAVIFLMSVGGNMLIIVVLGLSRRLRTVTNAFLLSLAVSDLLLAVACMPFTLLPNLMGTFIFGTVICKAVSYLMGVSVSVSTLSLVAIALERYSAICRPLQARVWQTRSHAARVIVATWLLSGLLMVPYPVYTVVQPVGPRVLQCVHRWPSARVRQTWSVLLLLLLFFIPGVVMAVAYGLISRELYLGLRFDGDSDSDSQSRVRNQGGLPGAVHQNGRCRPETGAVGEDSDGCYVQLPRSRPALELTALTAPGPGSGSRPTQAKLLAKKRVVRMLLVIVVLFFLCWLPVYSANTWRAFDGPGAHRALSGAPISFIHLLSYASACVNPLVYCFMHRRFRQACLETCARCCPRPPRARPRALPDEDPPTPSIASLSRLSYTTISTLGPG

[4] = molecular target: T2, Cholecystokinin receptor type A (Homo sapiens, UniProt P32238); experiment: Tested for its selectivity against human Cholecystokinin type A receptor isolated from a human gallbladder cDNA library and stably transfected into a COSM6 cell line; (n=1); type: cell-based
T2 sequence (P32238 whole entry): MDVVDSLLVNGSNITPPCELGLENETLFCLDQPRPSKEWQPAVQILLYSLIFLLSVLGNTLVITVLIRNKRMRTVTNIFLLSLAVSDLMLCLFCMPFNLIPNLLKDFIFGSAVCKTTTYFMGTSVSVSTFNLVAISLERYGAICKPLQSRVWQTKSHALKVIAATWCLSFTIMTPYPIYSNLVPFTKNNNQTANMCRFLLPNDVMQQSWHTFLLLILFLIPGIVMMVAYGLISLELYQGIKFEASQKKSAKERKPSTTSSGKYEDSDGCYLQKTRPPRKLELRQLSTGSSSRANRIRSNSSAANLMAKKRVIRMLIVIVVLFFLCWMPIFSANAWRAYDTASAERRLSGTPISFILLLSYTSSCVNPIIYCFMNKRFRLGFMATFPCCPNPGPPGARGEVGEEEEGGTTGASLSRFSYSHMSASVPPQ

[5] = molecular target: T3, Cholecystokinin receptor type A (Cavia porcellus) (UniProt Q63931); experiment: Tested for selectivity toward Cholecystokinin type A receptor by guinea -pig isolated ileum longitudinal muscle-myenteric plexus (GPI) assay; type: tissue-based
T3 sequence (whole entry): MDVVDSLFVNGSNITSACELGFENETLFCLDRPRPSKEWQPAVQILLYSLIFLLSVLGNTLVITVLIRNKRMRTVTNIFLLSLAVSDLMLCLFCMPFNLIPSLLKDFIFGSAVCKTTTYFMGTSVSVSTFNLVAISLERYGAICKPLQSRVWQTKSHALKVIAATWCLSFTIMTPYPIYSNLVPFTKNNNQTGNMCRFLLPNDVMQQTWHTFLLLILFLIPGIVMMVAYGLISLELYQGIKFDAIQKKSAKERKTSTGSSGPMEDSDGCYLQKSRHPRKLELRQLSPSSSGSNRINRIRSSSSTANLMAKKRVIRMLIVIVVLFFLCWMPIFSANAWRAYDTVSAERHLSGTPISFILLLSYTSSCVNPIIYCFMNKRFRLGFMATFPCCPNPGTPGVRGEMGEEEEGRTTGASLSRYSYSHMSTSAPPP

[6] = molecular target: T4, Gastrin/cholecystokinin type B receptor (Rattus norvegicus) (UniProt P30553); conditions: Gastric mucosa
T4 sequence (whole entry): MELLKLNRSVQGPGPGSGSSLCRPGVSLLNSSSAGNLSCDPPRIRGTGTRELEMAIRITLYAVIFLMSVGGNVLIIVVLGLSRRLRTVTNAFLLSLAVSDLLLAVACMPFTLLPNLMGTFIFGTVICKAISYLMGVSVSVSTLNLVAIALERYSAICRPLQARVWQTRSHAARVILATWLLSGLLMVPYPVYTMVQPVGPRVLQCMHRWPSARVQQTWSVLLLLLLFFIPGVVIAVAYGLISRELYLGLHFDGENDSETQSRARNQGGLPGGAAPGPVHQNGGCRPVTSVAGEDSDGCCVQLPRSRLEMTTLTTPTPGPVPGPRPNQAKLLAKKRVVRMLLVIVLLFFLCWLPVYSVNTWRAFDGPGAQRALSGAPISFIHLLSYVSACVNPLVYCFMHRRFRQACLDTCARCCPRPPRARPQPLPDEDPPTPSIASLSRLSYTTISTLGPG

[7] = molecular target: T4, Gastrin/cholecystokinin type B receptor (Rattus norvegicus); experiment: Tested for selectivity toward gastrin receptor by the ability to block pentagastrin stimulated acid secretion from isolated rat gastric mucosa (RGM); type: tissue-based
Rattus norvegicus [8] = experiment: Tested for its ability to inhibit acid secretion in the pentagastrin stimulated gastric fistula rat model by intravenous dose of 0.1 mg/kg; type: functional; conditions: Stomach
Rattus norvegicus [9] = experiment: Tested for its ability to inhibit acid secretion in the pentagastrin stimulated gastric fistula rat model by intra gastric dose of 1 mg/kg; type: functional; conditions: Stomach
[10] = molecular target: T2, Cholecystokinin receptor type A; experiment: Tested for its selectivity against human Cholecystokinin type A receptor isolated from a human gallbladder cDNA library and stably transfected into a COSM6 cell line (n=1); type: cell-based
Rattus norvegicus [11] = experiment: Compound was tested for its ability to inhibit acid secretion in the pentagastrin stimulated gastric fistula rat model by intravenous dose of 1 mg/kg; type: functional; conditions: Stomach
Rattus norvegicus [12] = experiment: Compound was tested for its ability to inhibit acid secretion in the pentagastrin stimulated gastric fistula rat model by intra gastric dose of 1 mg/kg; type: functional; conditions: Stomach
Rattus norvegicus [13] = experiment: Tested for its ability to inhibit acid secretion in the pentagastrin stimulated gastric fistula rat model by intravenous dose of 0.3 mg/kg; type: functional; conditions: Stomach
Rattus norvegicus [14] = experiment: Tested for its ability to inhibit acid secretion in the pentagastrin stimulated gastric fistula rat model by intra gastric dose of 0.3 mg/kg; type: functional; conditions: Stomach

SMILES | clearance [1] | bioavailability [2] | Ki [3] | Ki [4] | pKB [5] | pKB [7] | further results
O=C(Nc1ccc(F)cc1)NC1C(=O)N(CC(=O)N2CC3CCC(CC3)C2)c2ccccc2N(c2ccccc2F)C1=O (racemic) | 28 mL/min/kg | 7% | 0.398 nM | 10 nM |  |  | 
Cc1cccc(NC(=O)N[C@@H]2N=C(c3ccccc3)c3ccccc3N(C)C2=O)c1 |  |  |  |  | 7.7 |  | pKB [6]: 7.6
O=C(Nc1cccc(C2N=NN=N2)c1)NC1C(=O)N(CC(=O)N2CCCC2)c2ccccc2N(c2ccccc2)C1=O (stereo unspecified) |  |  |  |  | 7.4 | 10.3 | inhibition in vivo at 0.1 mg/kg (Rattus norvegicus [8]): 79%; inhibition in vivo at 1 mg/kg (Rattus norvegicus [9]): 45%
O=C(Nc1cccc(C(=O)O)c1)NC1C(=O)N(CC(=O)N2CCCC2)c2ccccc2N(c2ccccc2)C1=O (stereo unspecified) |  |  |  |  | 5.7 | 8.6 | 
O=C(Nc1ccc(F)cc1)NC1C(=O)N(CC(=O)N2CCCC2)c2ccccc2N(c2ccccc2F)C1=O (stereo unspecified) | 15 mL/min/kg | 68% | 12.6 nM |  | 6.8 | 8.6 | Ki [10]: 50.1 nM; inhibition in vivo at 1 mg/kg (Rattus norvegicus [11]): 86%; inhibition in vivo at 1 mg/kg (Rattus norvegicus [12]): 73%
O=C(Nc1ccccc1)NC1C(=O)N(CC(=O)N2CCCC2)c2ccccc2N(c2ccccc2)C1=O (stereo unspecified) |  |  |  |  | 7.3 | 8.5 | 
O=C(Nc1ccc(F)cc1)N[C@H]1C(=O)N(CC(=O)N2CCCC2)c2ccccc2N(C2CCCCC2)C1=O | 36 mL/min/kg | 23% | 2.51 nM | 79.4 nM |  |  | inhibition in vivo at 0.3 mg/kg (Rattus norvegicus [13]): 60%; inhibition in vivo at 0.3 mg/kg (Rattus norvegicus [14]): 67%
O=C(Nc1ccc(F)cc1)N[C@H]1C(=O)N(CC(=O)N2CCCC2)c2ccccc2N(C2CCCCCC2)C1=O |  | 10% | 1.58 nM | 79.4 nM |  |  | 
